Reference: BindingDB's records for patent US12319655 (Deciphera Pharmaceuticals, 2025)

Assays:
[1] = target: T1, Serine/threonine-protein kinase B-raf [416-766,V600E] (Homo sapiens, UniProt P15056, V600E); test: Biochemical Assay for B-Raf (V600E) (1)
T1 construct: 416-766
Protocol: Activity of B-Raf (V600E) (SEQ. ID NO: 4) kinase was determined spectroscopically using a coupled pyruvate kinase/lactate dehydrogenase assay that continuously monitors the ATP hydrolysis-dependent oxidation of NADH (e.g., Schindler et al., Science, 2000, 289, 1938-1942). Assays were conducted in 384-well plates (100 μL final volume) using 0.03 nM B-Raf (SignalChem), 1.5 units pyruvate kinase, 2.1 units lactate dehydrogenase, 1 mM phosphoenol pyruvate, 0.28 mM NADH, 30.1 nM MEK (SignalChem), and 1 mM ATP in assay buffer (100 mM Tris, Ph 7.5, 15 mM MgCl2, 0.5 mM DTT, 0.1% octyl-glucoside, 0.002% (w/v) BSA, and 0.002% Triton X-100). Inhibition of B-Raf (V600E) was measured by adding serial diluted test compound (final assay concentration of 1% DMSO). A decrease in absorption at 340 nm was monitored continuously for 6 h at 30° C. on a multi-mode microplate reader (BioTek). The reaction rate was calculated using the 3 to 4 h time frame. The reaction rate at each concentration of compound was converted to percent inhibition using controls (i.e., reaction with no test compound and reaction with a known inhibitor) and IC50 values were calculated by fitting a four-parameter sigmoidal curve to the data using Prism (GraphPad software).

[2] = target: T2, RAF proto-oncogene serine/threonine-protein kinase [306-648,Y340D,Y341D] (Homo sapiens, UniProt P04049, Y340D/Y341D); test: Biochemical Assay for C-Raf (1)
T2 construct: 306-648
T2 sequence (P04049 306-648 Y340D/Y341D): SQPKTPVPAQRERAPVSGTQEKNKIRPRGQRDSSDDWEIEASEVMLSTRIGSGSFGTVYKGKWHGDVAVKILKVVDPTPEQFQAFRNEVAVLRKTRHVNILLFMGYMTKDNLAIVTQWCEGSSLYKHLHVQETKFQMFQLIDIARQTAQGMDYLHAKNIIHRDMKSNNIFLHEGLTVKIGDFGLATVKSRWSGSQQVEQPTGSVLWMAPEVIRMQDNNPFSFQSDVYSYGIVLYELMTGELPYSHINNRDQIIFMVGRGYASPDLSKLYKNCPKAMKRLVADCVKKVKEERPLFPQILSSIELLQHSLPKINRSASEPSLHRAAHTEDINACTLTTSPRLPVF
Protocol: (§1) Activity of C-Raf kinase (SEQ. ID NO: 3) was determined spectroscopically using a coupled pyruvate kinase/lactate dehydrogenase assay that continuously monitors the ATP hydrolysis-dependent oxidation of NADH (e.g., Schindler et al., Science, 2000, 289, 1938-1942). Assays were conducted in 384-well plates (100 μL final volume) using 0.43 nM C-Raf (Sigma), 1.5 units pyruvate kinase, 2.1 units lactate dehydrogenase, 1 mM phosphoenol pyruvate, 0.28 mM NADH, 30.1 nM MEK (SignalChem), and 1 mM ATP in assay buffer (100 mM Tris, Ph 7.5, 15 mM MgCl2, 0.5 mM DTT, 0.1% octyl-glucoside, 0.002% (w/v) BSA, and 0.002% Triton X-100). Inhibition of C-Raf was measured by adding serial diluted test compound (final assay concentration of 1% DMSO). A decrease in absorption at 340 nm was monitored continuously for 6 h at 30° C. on a multi-mode microplate reader (BioTek). The reaction rate was calculated using the 4 to 5 h time frame. The reaction rate at each concentration of compound was converted to percent inhibition using controls (i.e., reaction with no test compound and reaction with a known inhibitor) and IC50 values were calculated by fitting a four-parameter sigmoidal curve to the data using Prism (GraphPad software).

[3] = target: T3, Serine/threonine-protein kinase B-raf [416-766] (UniProt P15056); test: Biochemical Assay for B-Raf (1)
T3 construct: 416-766
T3 sequence (P15056 416-766): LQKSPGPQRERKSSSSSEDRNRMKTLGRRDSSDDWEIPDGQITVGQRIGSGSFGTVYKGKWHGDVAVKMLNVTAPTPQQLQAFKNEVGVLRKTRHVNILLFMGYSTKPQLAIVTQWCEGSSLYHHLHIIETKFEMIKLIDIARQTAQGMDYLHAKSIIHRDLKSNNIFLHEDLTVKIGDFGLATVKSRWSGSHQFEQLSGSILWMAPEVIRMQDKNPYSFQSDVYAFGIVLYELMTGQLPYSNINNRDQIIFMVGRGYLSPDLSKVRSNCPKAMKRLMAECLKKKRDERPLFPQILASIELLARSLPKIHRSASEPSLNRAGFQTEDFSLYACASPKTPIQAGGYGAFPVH
Protocol: as §1, with “B-Raf” for “C-Raf”, “2)” for “3)”, “0.13” for “0.43”

T1 sequence (P15056 416-766 V600E): as the sequence (P15056 416-766) above, with V185E counted along it

Compound | IC50 [1] | IC50 [2] | IC50 [3]
Cc1ccc(NC(=O)c2ccnc(C(F)(F)F)c2)cc1-c1cc(-c2ccnc(N)c2)n(C)c(=O)c1 [US12319655, Example 53] | < 100 nM | – | –
Cc1ccc(NC(=O)c2ccnc(C(C)(C)C#N)c2)cc1-c1ccnc(-c2ccncc2)c1 [US12319655, Example 55] | – | < 100 nM | < 100 nM
Cc1ccc(NC(=O)c2ccnc(C(F)(F)F)c2)cc1-c1cccc(-c2ccnc(NC(=O)C3CC3)c2)c1 [US12319655, Example 58] | < 100 nM | < 100 nM | –
Cc1ccc(NC(=O)c2cnnc(C3CC3)c2)cc1-c1nccc(-c2ccnc(NC(=O)C3CC3)c2)n1 [US12319655, Example 272] | – | < 100 nM | < 100 nM
